According to BindingDB's records for doi:10.1021/acs.jmedchem.8b01394 (Roche Pharma Research and Early Development, 2018):

Experiments:
[1] = Inhibition of RSV Long fusion protein assessed as protection against virus induced cytopathic effect in infected human Hep2 cells after 5 days by CCK8 assay
[2] = Inhibition of RSV Long fusion protein L138F mutant assessed as protection against virus induced cytopathic effect in infected human Hep2 cells after 5 days by CCK8 assay
[3] = Inhibition of RSV Long fusion protein assessed as decrease in virus induced syncytium formation in infected human HeLa/M cells

EC50 [1] [nM] | Compound | further results
7 | Cc1ccc2nc(N3CCS(=O)(=O)c4ccccc4C3)cc(NCCCCN)c2c1 | 
27 | Cc1ccc2nc(N3CCS(=O)(=O)c4ccccc4C3)cc(NCCCCCN)c2c1 | 
5600 | CS(=O)(=O)c1ccc2nc(N3CCCc4ccccc4C3)cc(NCCN)c2c1 | 
11 | NCCNc1cc(N2CCS(=O)(=O)c3ccccc3C2)nc2ccccc12 | 
230 | NCCNc1cc(N2CCOc3ccccc3C2)nc2ccccc12 | 
62 | Cc1ccc2nc(N3CCC(F)(F)c4ccccc4C3)cc(NCCN)c2c1 | 
220 | NCC(O)CNc1cc(N2CCc3ccccc3C2)nc2ccccc12 (stereo not drawn) | 
> 100000 | NCC(O)CNc1cc(N2Cc3ccccc3C2)nc2ccccc12 (stereo not drawn) | 
220 | NCC(O)CNc1cc(N2CCCc3ccccc3C2)nc2ccccc12 (stereo not drawn) | 
22000 | OCC(O)CNc1cc(N2CCc3ccccc3C2)nc2ccccc12 (stereo not drawn) | 
> 100000 | CC(O)CNc1cc(N2CCc3ccccc3C2)nc2ccccc12 (stereo not drawn) | 
2300 | NCCNc1cc(N2CCc3ccccc3C2)nc2ccccc12 | 
> 100000 | NCCCCNc1cc(N2CCc3ccccc3C2)nc2ccccc12 | 
15000 | NC(=O)NCCNc1cc(N2CCc3ccccc3C2)nc2ccccc12 | 
6600 | NCCNc1cc(N2CCCc3ccccc3C2)nc2cccc(Cl)c12 | 
> 3200 | NCCNc1cc(N2CCCc3ccccc3C2)nc2cc(Cl)ccc12 | 

EC50 [1] [nM] | Compound | further results
1100 | NCCNc1cc(N2CCCc3ccccc3C2)nc2c(Cl)cccc12 | 
73 | Cc1ccc2nc(N3CCCc4ccccc4C3)cc(NCCN)c2c1 | 
1500 | NCCNc1cc(N2CCCc3ccccc3C2)nc2ccc(F)cc12 | 
1100 | NCCNc1cc(N2CCCc3ccccc3C2)nc2ccc(C(F)(F)F)cc12 | 
310 | Cc1ccc2nc(N3CC(=O)Nc4ccccc4C3)cc(NCCN)c2c1 | 
460 | Cc1ccc2nc(N3CCCc4cc(F)ccc4C3)cc(NCCN)c2c1 | 
100 | Cc1ccc2nc(N3CCCc4ccc(F)cc4C3)cc(NCCN)c2c1 | 
1 | Cc1ccc2nc(N3CCS(=O)(=O)c4ccccc4C3)cc(NCCCN)c2c1 | 
7800 | NCCCNc1cc(N2CCc3ccccc3C2)nc2ccccc12 | 
2300 | N=C(N)NCCNc1cc(N2CCc3ccccc3C2)nc2ccccc12 | 
120 | NCCNc1cc(N2CCCc3ccccc3C2)nc2ccc(Cl)cc12 | 
320 | COc1ccc2nc(N3CCCc4ccccc4C3)cc(NCCN)c2c1 | 
230 | Cc1ccc2nc(N3CCNc4ccccc4C3)cc(NCCN)c2c1 | 
4 | Cc1ccc2nc(N3CCS(=O)(=O)c4ccccc4C3)cc(NCCN)c2c1 | 
 | Cc1ccc(O)c(Cn2c(NC3CCN(CCN)CC3)nc3c(C)cccc32)n1 [JNJ 2408068] | EC50 [3]: 0.16 nM

Compound | EC50 [1] [nM] | further results
NCCNc1cc(N2CCCc3ccccc3C2)nc2ccccc12 | 200 | IC50 [2]: 2300 nM
